Experimental data reported in publication PMC8853707, “Synthesis and enzyme-based evaluation of analogues L-tyrosine thiol carboxylic acid inhibitor of metallo-β-lactamase IMP-1” (Journal of Enzyme Inhibition and Medicinal Chemistry, 2019).

Target: T1, IMP-1 (Serratia marcescens, UniProt P52699)
Test: Kinetic inhibition assay of IMP-1 (hydrolysis of benzyl penicillin followed at 235 nm), Kic
Assay type: biochemical
Conditions: not given
Text: The IMP-1 enzyme, lacking the first 21 signal peptide amino acid residues, was expressed and purified using the protocol of Vella et al.[45–46] The reported methods for monitoring of MBLs activities are based on the consequences of the hydrolysis of β-lactam ring of substrates. The MBL-catalysed reaction is usually monitored by following the changing absorbance at the wavelength where the difference in the molar absorptivity, ΔɛM, is maximal or near the maximum value. There are a few β-lactam substrates which can be used for in vitro assays of MBLs inhibitors. CENTA,[47] a type of cephalosporin, and Penicillin G (benzyl penicillin)[48] are well-known substrates due to commercial availability, inexpensive prices and comfort of their syntheses. For this study, Penicillin G was used as CENTA was not compatible with the inhibitor type as reported by Arjomandi et al.[1] The monitoring of hydrolysis of benzyl penicillin by the synthesized compounds was carried out in UV plate at wavelength 235 nm as no chromosphere is released (Figure 7). The concentration of benzyl penicillin is reduced upon hydrolysis by IMP-1 causing a decrease in the absorption at 235 nm over the time, thereby allowing a way to monitor the reaction. Inhibitors of metallo-β-lactamase decrease the rate of hydrolysis of benzyl penicillin, thus, providing a way of measuring the activities of inhibitors against MBLs.
Benzyl penicillin solutions were prepared fresh at the time of assay as their activities will change and stop after 24 h even with keeping in the fridge.[1] In the first step, the inhibitory activities (IC50 values) of the inhibitors 2a–k were measured by a screening assay which evaluated the residual activity of the enzyme. […] Further kinetic analyses then allowed the determination of Kic values of these compounds based on the procedure reported by Arjomandi et al.[1] Inhibition assays for IMP-1 were performed in 96 well 400 µL UV multi-titre plates using a UV multi-plate spectrophotometer. The hydrolysis rate of benzyl penicillin (penicillin G sodium salt) was measured at λ = 235 nm.[49] The initial screening assay (IC50 values) was performed in duplicate, with benzyl penicillin as the substrate and HEPESX (50 mM HEPES, 0.1 M NaCl, […], pH 7.0) as the buffer at 25 °C. The final concentrations of enzyme and benzyl penicillin were 10 nM and 500 µM, respectively. Bovine serum albumin (a final concentration of 20 µg/mL) was added to the enzyme for stability. For each well, 196 µL substrate and 4 µL inhibitor were added followed by the addition of 200 µL of enzyme. The rate of the hydrolysis of substrate was recorded for 5 min. To measure Kic value, four solutions with different concentrations for each molecule were prepared and then were assayed based on the aforementioned procedure while the concentrations of substrate in wells were 200, 400, 600, 800 and 1000 µM. The raw kinetic data were analysed by non-linear regression using the Win Curve Fit program (Kevin Raner Software) and the Kic value was calculated for each molecule.[1] The Kic values of molecules 2a–k are in the range of 1.04–4.77 µM which was unexpected based on the computational modelling results. Although the introduced compounds are still potent enzyme-based inhibitors, they are nearly at least ten times less as potent as the lead inhibitor is. Due to the less inhibition activities of the synthesized molecules in compare to the reference compound, their cell-based assays have not carried out.

T1 sequence (P52699 22-246 limits assumed): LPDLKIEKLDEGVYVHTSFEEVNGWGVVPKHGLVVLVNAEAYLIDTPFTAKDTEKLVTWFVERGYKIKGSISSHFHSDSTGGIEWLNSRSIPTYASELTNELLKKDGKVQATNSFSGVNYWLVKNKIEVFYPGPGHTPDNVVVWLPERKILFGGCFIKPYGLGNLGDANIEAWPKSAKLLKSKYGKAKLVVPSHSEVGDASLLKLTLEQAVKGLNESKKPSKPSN

Compound | Ki
Cc1cccc(COc2ccc(C[C@H](NC(=O)CS)C(=O)O)cc2)c1 [Compound 2b, (S)-2-(2-Mercaptoacetamido)-3-(4-((3-methylbenzyl)oxy)phenyl)propanoic acid] | 1150 ± 490 nM
O=C(CS)N[C@@H](Cc1ccc(OCc2ccc(Cl)cc2)cc1)C(=O)O [Compound 2f, (S)-3-(4-((4-Chlorobenzyl)oxy)phenyl)-2-(2-mercaptoacetamido)propanoic acid] | 3200 ± 590 nM
O=C(CS)N[C@@H](Cc1ccc(OCc2ccc(Br)cc2)cc1)C(=O)O [Compound 2k, (S)-3-(4-((4-Bromobenzyl)oxy)phenyl)-2-(2-mercaptoacetamido)propanoic acid] | 3300 ± 900 nM
O=C(CS)N[C@@H](Cc1ccc(OCc2ccc([N+](=O)[O-])cc2)cc1)C(=O)O [Compound 2i, (S)-2-(2-Mercaptoacetamido)-3-(4-((4-nitrobenzyl)oxy)phenyl)propanoic acid] | 3200 ± 620 nM
O=C(CS)N[C@@H](Cc1ccc(OCc2cccc([N+](=O)[O-])c2)cc1)C(=O)O [Compound 2h, (S)-2-(2-Mercaptoacetamido)-3-(4-((3-nitrobenzyl)oxy)phenyl)propanoic acid] | 2860 ± 1230 nM
Cc1ccc(COc2ccc(C[C@H](NC(=O)CS)C(=O)O)cc2)cc1 [Compound 2c, (S)-2-(2-Mercaptoacetamido)-3-(4-((4-methylbenzyl)oxy)phenyl)propanoic acid] | 1070 ± 210 nM
O=C(CS)N[C@@H](Cc1ccc(OCc2ccccc2Cl)cc1)C(=O)O [Compound 2d, (S)-3-(4-((2-Chlorobenzyl)oxy)phenyl)-2-(2-mercaptoacetamido)propanoic acid] | 1810 ± 900 nM
O=C(CS)N[C@@H](Cc1ccc(OCc2cccc(Br)c2)cc1)C(=O)O [Compound 2j, (S)-3-(4-((3-Bromobenzyl)oxy)phenyl)-2-(2-mercaptoacetamido)propanoic acid] | 3140 ± 710 nM
O=C(CS)N[C@@H](Cc1ccc(OCc2cccc(Cl)c2)cc1)C(=O)O [Compound 2e, (S)-3-(4-((3-chlorobenzyl)oxy)phenyl)-2–(2-mercaptoacetamido)propanoic acid] | 4770 ± 2810 nM
Cc1ccccc1COc1ccc(C[C@H](NC(=O)CS)C(=O)O)cc1 [Compound 2a, (S)-2-(2-Mercaptoacetamido)-3-(4-((2-methylbenzyl)oxy)phenyl)propanoic acid] | 1040 ± 280 nM
O=C(CS)N[C@@H](Cc1ccc(OCc2ccccc2[N+](=O)[O-])cc1)C(=O)O [Compound 2g, (S)-2-(2-Mercaptoacetamido)-3-(4-((2-nitrobenzyl)oxy)phenyl)propanoic acid] | 1650 ± 340 nM

Target: T1, IMP-1
Test: not given
Conditions: read-out: Kic; against IMP-1; reference inhibitor; cited from earlier work

Compound | Ki
O=C(CS)N[C@@H](Cc1ccc(OCc2ccccc2)cc1)C(=O)O [Compound 1, L-benzyl tyrosine thiol carboxylic acid] | 86 ± 24 nM
